Results taken from patent US20050075398A1, “Neuroprotectin D1 protects against cellular apoptosis, stroke damage, alzheimer's disease and retinal diseases” (priority 2003, published 2005).

Assays:
[1] = tested on: polymorphonuclear leukocyte infiltration (myeloperoxidase activity); assay: Myeloperoxidase (MPO) activity assay in hippocampus and neocortex after MCA-O and reperfusion; type: in vivo, mouse; details: 0.4 μg over 48 h cerebroventricular perfusion; 1 h MCA-O, 48 h reperfusion
Procedure: Middle Cerebral Artery Occlusion (MCA-O) and reperfusion. Experimental protocols were reviewed and approved by the Institutional Animal Care and Use Committee of Louisiana State University Health Sciences Center, New Orleans. Mice (20-25 g body wt) were induced with 2% isoflurane in a mixture of 70% nitrous oxide and 30% oxygen. Anesthesia was maintained with 1% isoflurane. Temperature was maintained at 36.5-37.5° C. using a Harvard homeothermic blanket. P 10 polyethylene catheters were placed in the femoral artery and vein, and the blood pressure was monitored. Arterial blood was analyzed for PO2, PCO2, and pH after 1 h of ischemia and 30 min after the onset of reperfusion. The common carotid and external carotid arteries were temporarily ligated with a retracting suture, and the external carotid artery was dissected just proximal to its bifurcation. The occluding filament was introduced from the external carotid artery and advanced to the internal carotid artery. The AVM micro clip was removed. The filament was advanced so that the blunted tip lay in the anterior cerebral artery and the side of the filament occluded the origin of the middle cerebral artery (MCA). The stump of the external carotid artery was ligated, and tension on the retracting suture to the common carotid artery was gently released, restoring blood flow to the carotid system.
Occlusion of the middle cerebral artery (MCA-O) was maintained for 1 h; reperfusion was then established by delicate retrieval of the occluding suture from the arterial lumen, restoring blood flow to the region of the MCA. The mice were then killed, and the hippocampus and brain cortex rapidly dissected and frozen. Samples were kept at −80° C. until analysis. In some experiments, aspirin (7.5 mg/kg) was administered by gavage 15 min before MCA-O.
Polymorphonuclear leukocyte infiltration measurement by the myeloperoxidase (MPO) assay. Inhibition of leukocyte infiltration by 10,17S-docosatriene (NPD1) or docosahexaenoic acid (DHA) was measured in mouse hippocampus and neocortex after 1 h of middle cerebral artery occlusion (MCA-O) and 48 h of reperfusion. Lipids were delivered for each experiment by perfusion (250 nl/h) through Alzet minipumps implanted into the third ventricle. Hippocampus and neocortex from the ipsilateral (MCA-O-reperfusion) and contralateral sides were rapidly dissected. Brain samples were assayed for myeloperoxidase activity as described in Huang, J., Choudhri, T. F., Winfree, C. J., McTaggart, R. A., Kiss, S., Mocco, J., Kim, L. J., Protopsaltis, T. S., Zhang, Y., Pinsky, D. J., and Connolly Jr., E. S. (2000) Stroke 31, 3047-3053. Briefly, brain tissues were homogenized in 10 mM phosphate buffer (pH 7.4), then frozen and thawed with liquid N2 followed by sonication. Samples were precipitated at 10,000×g for 10 min, then aliquots of supernatants were added to 10 mM phosphate buffer (pH 6.0) and a substrate solution containing o-dianisidine (Sigma; St. Louis, Mo.) and 0.025% hydrogen peroxide, and finally incubated at 37° C. for 45 min. Spectrophotometric detection was obtained at 460 nm.

STAT-1 = assay: EMSA of STAT-1 in IL-1β-exposed human neural progenitor cells; type: cell-based; details: HN progenitor cells
Procedure: (§1) Human neural (HN) progenitor cells in primary culture. HN cells were grown to ˜70% confluence (˜50,000 cells per 3.5-cm diameter well) in 6-well COSTAR plates at 37° C., 5% CO2/20% O2/75% N2 in humidified air at 1 atm (normoxic conditions) in NPMM medium (Clonetics CC-4241) supplemented with hFGF, NSF-1, hEGF, GA-1000, as described by the manufacturer (Clonetics, Walkersville, Md.). HN cells tested negative for HIV-1, hepatitis B and C, mycoplasma, bacteria, yeast, and fungi, and positive for the glial and neuronal markers GFAP, MAP2, and β-tubulin III (Clonetics). […]
(§2) Electrophoretic mobility-shift assay (EMSA) of human AP1, HIF-1α, NF-κBp50/p65, and STAT-1α. Nuclear protein extracts (NPXTs) were prepared from one to three 3.5 cm-diameter wells of HN cells and quantitated. NPXTs (5 μg) derived from HN cells were incubated with[γ-^32P]-ATP (˜3000 Ci/mmol)-end-labeled AP1, HIF-1α, NF-κκBp50/p65, or STAT-1α consensus and mutant oligonucleotides in 5-μl volumes, reacted for 30 min on ice, analyzed on 5% or 10% acrylamide/90 mM Tris-borate pH 8.4, 1 mM EDTA (TBE) gels, dried onto 2-mm Whatman filter paper at 80° C. for 2 h, and phosphorimaged using a Typhoon Variable Mode Imager (Amersham Pharmacia Biotech, Piscataway, N.J. ).

COX-1 mRNA = COX-1 mRNA in human neural progenitor cells; type: cell-based
Procedure: Human neural (HN) progenitor cells in primary culture. HN cells were grown to ˜70% confluence (˜50,000 cells per 3.5-cm diameter well) in 6-well COSTAR plates at 37° C., 5% CO2/20% O2/75% N2 in humidified air at 1 atm (normoxic conditions) in NPMM medium (Clonetics CC-4241) supplemented with hFGF, NSF-1, hEGF, GA-1000, as described by the manufacturer (Clonetics, Walkersville, Md.). HN cells tested negative for HIV-1, hepatitis B and C, mycoplasma, bacteria, yeast, and fungi, and positive for the glial and neuronal markers GFAP, MAP2, and β-tubulin III (Clonetics). After two weeks of development, HN cells were exposed to human recombinant interleukin 1-beta (IL-1β) (10 ng/ml) for 3 h in the presence or absence of 0.03, 0.3, 3.0, 30, and 300 nM 10,17S-docosatriene (NPD1), DHA, or PBS pH 7.4 (control). RNA and protein were quickly isolated using Trizol Reagent (Invitrogen, Carlsbad, Calif.) and stored at −81° C. within minutes of isolation.
COX-2 RNA abundance in hippocampus and HN cells. Abundance of human-specific COX-1 and COX-2 RNA message was assayed using RT-PCR as described in Bazan, N. G., and Lukiw, W. J. (2002) J. Biol. Chem. 277, 30359-30367.

AP1-DNA binding activity = assay: EMSA of AP1 in IL-1β-exposed human neural progenitor cells; type: cell-based; details: HN progenitor cells
Procedure: as §1, §2

Bad = assay: Western blot of Bad in ARPE-19 cells under TNFα/H2O2; type: cell-based, human; details: 50 nM; similar conditions (800 μM H2O2 with TNFα)
Procedure: (§3) Analysis of pro- and anti-apoptotic proteins in ARPE-19 cells: Bcl-2 family proteins were analyzed by Western-blot analysis. In brief, 20-μg equivalents of each cell extract were subjected to electrophoresis on a 8-16% gel (Promega, Madison, Wis.) at 125 volts for 2 h. The proteins were transferred to nitrocellulose membrane at 30 volts for 1 h at 4° C. The membranes were subjected to treatment with primary antibodies of Bcl-2, Bcl-xL, Bax, and Bad for 1 h at room temperature, and probed 30 min with secondary antibody, goat anti-rabbit Ig:HRPO and HRP-conjugated anti-biotin antibody. (BD Sciences—Pharminogen, San Diego, Calif.) Then proteins were evaluated using an ECL kit. (Amersham Biosciences Corp., Piscataway, N.J.)
(§4) Using the same TNFα/H2O2 concentrations, Bcl-2 proteins were assayed. Cells were grown for 72 h after plating, placed in serum-free medium for 1 h, then incubated with TNFα/H2O2 for 6 h. Protein expression and Western-blot analysis were performed as described in Example 13. Data in FIGS. 14A, 14B, 14C and 14D represent four independent experiments with triplicate samples in each case. Anti-apoptotic protein Bcl-xL was enhanced in ARPE-19 cells by TNFα/H2O2 (800 μM) (FIG. 14B, first bar), whereas Bcl-2 was not changed (FIG. 14A, first bar).

Bax = assay: Western blot of Bax in ARPE-19 cells under TNFα/H2O2; type: cell-based, human; details: 50 nM; 800 μM H2O2 along with TNFα, 6 h
Procedure: as §3, §4

SMILES: CC/C=C\C[C@H](O)\C=C/C=C/C=C/[C@H](O)C/C=C\C/C=C\CCC(=O)O [NPD1, 10,17S-docosatriene]
- inhibition of ipsilateral myeloperoxidase activity, cortex [1]: 99%
- inhibition of ipsilateral myeloperoxidase activity, hippocampus [1]: 80%
- effect on STAT-1 (STAT-1): unaffected
- effect on basal level of COX-1 mRNA (COX-1 mRNA): seemed to decrease
- effect on IL-1β-induced AP1-DNA binding activity (AP1-DNA binding activity): did not affect
- decrease of oxidative stress-increased Bad (Bad): 52%
- decrease of the up regulation of Bax (Bax): 65%
